Results as given in PubChem BioAssay (NCI).
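Exposure lasted 48 hours, with cells grown in 96-well plates and compounds tested at five concentrations. GI50 = concentration required for 50% inhibition of growth. At the TGI there is no net growth.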

What was measured:
Test in all cases: NCI-60 cell line screen, 48 h
[1] = tested on: PC-3 prostate
[2] = tested on: U251 CNS
[3] = tested on: SNB-19 CNS
[4] = tested on: MDA-MB-435
[5] = tested on: NCI/ADR-RES ovarian
[6] = tested on: HT29 colon
[7] = tested on: 786-0 renal
[8] = tested on: KM12 colon
[9] = tested on: A549 NSCLC
[10] = tested on: UACC-62 melanoma

SMILES | TGI [1] | TGI [2] | TGI [3] | TGI [4] | TGI [5] | TGI [6] | TGI [7] | TGI [8] | TGI [9] | TGI [10] | GI50 [1] | GI50 [2] | GI50 [4] | GI50 [7] | GI50 [9] | GI50 [10] | GI50 [3] | GI50 [5] | GI50 [6] | GI50 [8]
OC1(c2ccccc2)C2CC=CC2C1(c1ccccc1)c1ccccc1 (stereo unspecified) | > 100 µM | > 100 µM | > 100 µM | 62.1 µM | > 100 µM | 69.8 µM | > 100 µM | > 100 µM | > 100 µM | > 100 µM |  |  |  |  |  |  |  |  |  | 
C=C(C)[C@@H]1CCC=C2CC[C@]3(C)[C@H](CC[C@@H]4[C@@]5(C)CCCNC(C)(C)[C@@H]5CC[C@]43C)[C@H]21 | 6.21 µM | 3.12 µM |  | 3.11 µM |  |  | 3.04 µM |  | 3.86 µM | 3.84 µM | 2.31 µM | 1.69 µM | 1.66 µM | 1.68 µM | 2.04 µM | 1.92 µM |  |  |  | 
CCCCC(SC(=S)N1CCCC1)C(=O)Nc1nc(CC(=O)OCC)cs1 (stereo unspecified) | > 100 µM | > 100 µM | > 100 µM | > 100 µM | > 100 µM | > 100 µM | > 100 µM | > 100 µM | > 100 µM | > 100 µM | 0.985 µM | 53.8 µM | 35.4 µM | 62.2 µM | 31.7 µM | 76.4 µM | 65.1 µM | 37.6 µM | 21.8 µM | 45.3 µM
CCCCNNC(=O)c1ccc(Br)cc1 | > 50 µM | 28.5 µM | > 50 µM | > 50 µM | > 37.8 µM | > 39 µM | > 50 µM | > 50 µM | > 50 µM | 7.51 µM | 4.12 µM | 3.78 µM | 2.21 µM | 11.8 µM | 5.34 µM | 1.3 µM | 11.2 µM | 1.03 µM | 1.92 µM | 7.26 µM
CCC(=O)N1C/C(=C/c2ccc(Cl)cc2)C(=O)/C(=C/c2ccc(Cl)cc2)C1 | 2.4 µM | 0.897 µM | 2.45 µM | 1.64 µM | 12.2 µM | 0.622 µM | 1.22 µM | 0.665 µM | 4.14 µM | 1.94 µM | 0.464 µM | 0.28 µM | 0.403 µM | 0.332 µM | 0.868 µM | 0.728 µM | 1.02 µM | 1.79 µM | 0.248 µM | 0.25 µM
C=CO/N=[N+](\[O-])N(CC)CC |  | > 100 µM | > 100 µM | > 100 µM | > 100 µM | > 100 µM | > 100 µM | > 100 µM | > 100 µM | > 100 µM |  |  |  |  |  |  |  |  |  | 
C=C1C(=O)O[C@H]2[C@H]1CC/C(COC(=O)CCCCCC(=O)OC/C1=C/CC[C@@]3(C)O[C@H]3[C@H]3OC(=O)C(=C)[C@@H]3CC1)=C\CC[C@@]1(C)O[C@@H]21 | 5.96 µM | 9.61 µM | 19.5 µM | 8.92 µM | 24.8 µM | 3.84 µM | 2.49 µM | 5.4 µM | 23.8 µM | 4.92 µM | 2.24 µM | 2.64 µM | 2.58 µM | 1.09 µM | 10.4 µM | 2.02 µM | 4.09 µM | 3.64 µM | 1.97 µM | 2.17 µM
C=C1CC(CC)(CCN2C(=O)c3ccccc3C2=O)OC1=O (stereo unspecified) |  |  |  |  |  | 37.3 µM | 24.2 µM | 45.1 µM | > 100 µM | 26.3 µM |  |  |  |  |  |  |  |  |  | 
Nc1ccn(C2CC(F)C(CO)O2)c(=O)n1 (stereo unspecified) | > 100 µM | > 100 µM | > 100 µM | > 100 µM | > 100 µM | > 100 µM | > 100 µM | > 100 µM | > 100 µM | > 100 µM | > 100 µM | > 100 µM | > 100 µM | > 100 µM | > 100 µM | > 100 µM | > 100 µM | > 100 µM | > 100 µM | > 100 µM
CCCn1c2c(c3c(O)cccc31)C(=O)c1ccccc1-2 | 36 µM | 56.2 µM | > 100 µM | > 100 µM | 81.6 µM | > 100 µM | 52.2 µM |  | > 100 µM | 69.3 µM | 12.6 µM | 18.2 µM | > 100 µM | 14.6 µM | 21.8 µM | 15.2 µM | 25.5 µM | 13.4 µM | 29.7 µM | 
COc1ccccc1/C=C1\COc2ccc(-c3ccccc3)cc2C1=O | > 100 µM | 6.24 µM | > 100 µM | > 100 µM | 23.6 µM |  | > 100 µM | 5.55 µM | 8.9 µM | 45.2 µM | 4.28 µM | 2.12 µM | 2.11 µM | 4.31 µM | 2.61 µM | 4.39 µM | 4.2 µM | 3.66 µM |  | 1.93 µM
CC(C)N(C(=O)c1cccc(C(=O)N(C(C)C)C(C)C)c1)C(C)C |  | > 100 µM | > 100 µM |  |  | > 100 µM | > 100 µM | > 100 µM | > 100 µM | > 100 µM |  |  |  |  |  |  |  |  |  | 
COC(=O)CCC(NC(=S)N/N=C(\C)c1ccc[nH]1)C(=O)OC (stereo unspecified) |  | > 100 µM | > 100 µM |  |  | > 100 µM | > 100 µM | > 100 µM | > 100 µM | > 100 µM |  |  |  |  |  |  |  |  |  | 
Cc1cc(N(CCC#N)S(=O)(=O)c2ccccc2)ccc1/C=C1\N=C(c2ccc(Cl)cc2)OC1=O |  | > 100 µM | > 100 µM |  |  | > 100 µM | > 100 µM | > 100 µM | > 100 µM | > 100 µM |  |  |  |  |  |  |  |  |  | 
CCO/C=C1\N=C(c2ccc(Cl)c(Cl)c2)OC1=O |  |  | > 100 µM |  |  | > 100 µM | > 100 µM | > 100 µM | > 100 µM | > 100 µM |  |  |  |  |  |  |  |  |  | 
CC(C)C1CO[C@]2(C)CCC(=O)N12 (stereo partly specified) |  | > 100 µM | > 100 µM |  |  | > 100 µM | > 100 µM | > 100 µM | > 100 µM | > 100 µM |  |  |  |  |  |  |  |  |  | 
